Test results: patent US8450332B2, “LIMK2 inhibitors, compositions comprising them, and methods of their use” (Lexicon Pharmaceuticals, Inc., priority 2008, dated 2013)

Each compound was assayed against T1, LIMK2 (Homo sapiens, UniProt P53671) (assay: In vitro LIMK2 inhibition assay (33P incorporation into myelin basic protein flash plates)).
T1 construct: His tag (histidine-tagged; pFastBacHT vector); made in house; host or cells: Sf9 insect cells (BAC-to-BAC baculovirus system)
Assay type: biochemical
Description: Using the procedures described herein and methods known in the art, the additional compounds listed below in Table 1 were prepared. The LIMK2 IC50 data that is provided below for some of the compounds was determined using the assay described in Example 32.
An in vitro assay used to identify LIMK2 inhibitors was developed. The analytical readout was the incorporation of ^33P from ATP substrate into immobilized myelin basic protein coated flash plates (Perkin Elmer Biosciences), which were counted on a scintillation counter equipped with a plate reader (TopCount, Packard Bioscience, Meriden, Conn.). Using 384 well flat MBP flashplates, total assay volume was 50 μl. The HTS program utilized a Biomek FX for dilution.
For each assay, the ingredients and conditions were as follows: 200 ng of enzyme was incubated in assay buffer (1× assay buffer contains 30 mM HEPES (pH 8.0), 5 mM DTT, and 10 mM MgCl2), 10 μM ATP, 0.2 μCi [gamma-^33P]-ATP and 10 μM of potential inhibitory compound. The reaction was incubated at room temperature for 60 minutes, washed 3 times with 75 μl of stop/wash buffer (1× stop/was buffer contains 50 mM EDTA and 20 mM Tris (pH 7.4)), and then the plates were read on the scintillation counter. Different concentrations of staurosporine (400 nM, 200 nM, 100 nM and 50 nM; purchased from BIOMOL (Plymouth Meeting, Pa.)) were used as controls on each plate.

T1 sequence (P53671 whole entry): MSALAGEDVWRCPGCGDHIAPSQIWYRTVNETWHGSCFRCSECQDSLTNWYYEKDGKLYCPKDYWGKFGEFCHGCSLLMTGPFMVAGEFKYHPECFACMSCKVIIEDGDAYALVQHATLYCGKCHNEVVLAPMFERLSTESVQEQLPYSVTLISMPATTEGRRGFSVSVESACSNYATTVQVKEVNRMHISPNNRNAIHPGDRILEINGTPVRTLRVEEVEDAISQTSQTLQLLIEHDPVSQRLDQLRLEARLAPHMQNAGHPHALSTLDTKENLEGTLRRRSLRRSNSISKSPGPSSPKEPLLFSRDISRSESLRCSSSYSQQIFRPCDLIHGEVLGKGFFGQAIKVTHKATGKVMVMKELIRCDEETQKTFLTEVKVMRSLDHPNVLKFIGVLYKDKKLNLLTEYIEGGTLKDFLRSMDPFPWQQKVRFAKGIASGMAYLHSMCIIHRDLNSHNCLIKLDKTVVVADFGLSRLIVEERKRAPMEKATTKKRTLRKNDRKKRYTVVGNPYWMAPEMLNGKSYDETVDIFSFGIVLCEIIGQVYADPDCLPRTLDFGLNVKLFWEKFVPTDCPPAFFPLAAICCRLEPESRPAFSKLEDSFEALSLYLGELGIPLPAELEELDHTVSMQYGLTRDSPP

| IC50 | SMILES |
| --- | --- |
| < 0.25 µM | Cc1c[nH]c2ncnc(N3CCC(CN)(C(=O)Nc4cccc(C(F)(F)F)c4)CC3)c12 [4-(aminomethyl)-1-(5-methyl-7H-pyrrolo[2,3-d]pyrimidin-4-yl)-N-(3-(trifluoromethyl)phenyl)piperidine-4-carboxamide] |
| < 0.25 µM | Cc1cccc(NC(=O)C2(CN)CCN(c3ncnc4[nH]cc(C)c34)CC2)c1 [4-(aminomethyl)-1-(5-methyl-7H-pyrrolo[2,3-d]pyrimidin-4-yl)-N-m-tolylpiperidine-4-carboxamide] |
| < 0.25 µM | Cc1c[nH]c2ncnc(N3CCC(CN)(C(=O)Nc4cccc(OCC(=O)N(C)C)c4)CC3)c12 [4-(aminomethyl)-N-(3-(2-(dimethylamino)-2-oxoethoxy)phenyl)-1-(5-methyl-7H-pyrrolo[2,3-d]pyrimidin-4-yl)piperidine-4-carboxamide] |
| < 0.25 µM | Cc1c[nH]c2ncnc(N3CCC(CN)(C(=O)Nc4cccc(C(=O)N(C)C)c4)CC3)c12 [4-(aminomethyl)-N-(3-(dimethylcarbamoyl)phenyl)-1-(5-methyl-7H-pyrrolo[2,3-d]pyrimidin-4-yl)piperidine-4-carboxamide] |
| < 0.25 µM | Cc1c[nH]c2ncnc(N3CCC(CN)(C(=O)Nc4cccc(Br)c4)CC3)c12 [4-(aminomethyl)-N-(3-bromophenyl)-1-(5-methyl-7H-pyrrolo[2,3-d]pyrimidin-4-yl)piperidine-4-carboxamide] |
| < 0.25 µM | Cc1c[nH]c2ncnc(N3CCC(CN)(C(=O)Nc4cccc(Cl)c4)CC3)c12 [4-(aminomethyl)-N-(3-chlorophenyl)-1-(5-methyl-7H-pyrrolo[2,3-d]pyrimidin-4-yl)piperidine-4-carboxamide] |
| < 0.25 µM | Cc1c[nH]c2ncnc(N3CCC(CN)(C(=O)Nc4cccc(O)c4)CC3)c12 [4-(aminomethyl)-N-(3-hydroxyphenyl)-1-(5-methyl-7H-pyrrolo[2,3-d]pyrimidin-4-yl)piperidine-4-carboxamide] |
| < 0.25 µM | Cc1c[nH]c2ncnc(N3CCC(CN)(C(=O)Nc4cccc(OC(C)C)c4)CC3)c12 [4-(aminomethyl)-N-(3-isopropoxyphenyl)-1-(5-methyl-7H-pyrrolo[2,3-d]pyrimidin-4-yl)piperidine-4-carboxamide] |
| < 0.25 µM | C=CCC1(C(=O)Nc2cccc(Oc3ccc(F)cc3)c2)CCN(c2ncnc3[nH]cc(C)c23)CC1 [4-allyl-N-(3-(4-fluorophenoxy)phenyl)-1-(5-methyl-7H-pyrrolo[2,3-d]pyrimidin-4-yl)piperidine-4-carboxamide] |
| < 0.25 µM | C=CCC1(C(=O)Nc2cccc(F)c2)CCN(c2ncnc3[nH]cc(C)c23)CC1 [4-allyl-N-(3-fluorophenyl)-1-(5-methyl-7H-pyrrolo[2,3-d]pyrimidin-4-yl)piperidine-4-carboxamide] |
| < 0.25 µM | Cc1c[nH]c2ncnc(N3CCC(C)(C(=O)Nc4cccc(C(F)(F)F)c4)CC3)c12 [4-methyl-1-(5-methyl-7H-pyrrolo[2,3-d]pyrimidin-4-yl) N-(3-(trifluoromethyl)phenyl)piperidine-4-carboxamide] |
| < 0.25 µM | Cc1c[nH]c2ncnc(N3CCC(C)(C(=O)Nc4cccc(S(=O)(=O)N5CCOCC5)c4)CC3)c12 [4-methyl-1-(5-methyl-7H-pyrrolo[2,3-d]pyrimidin-4-yl)-N-(3-(morpholinosulfonyl)phenyl)piperidine-4-carboxamide] |
| < 0.25 µM | Cc1cccc(NC(=O)C2(C)CCN(c3ncnc4[nH]cc(C)c34)CC2)c1 [4-methyl-1-(5-methyl-7H-pyrrolo[2,3-d]pyrimidin-4-yl)-N-m-tolylpiperidine-4-carboxamide] |

The next lines start with the compound.

| SMILES | IC50 |
| --- | --- |
| CC(=O)NCC1(C(=O)Nc2cccc(OC(=O)N(C)C)c2)CCN(c2ncnc3[nH]cc(C)c23)CC1 [3-(4-(acetamidomethyl)-1-(5-methyl-7H-pyrrolo[2,3-d]pyrimidin-4-yl)piperidine-4-carboxamido)phenyl dimethylcarbamate] | < 0.25 µM |
| CCN(CC)C(=O)Oc1cccc(NC(=O)C2(CN)CCN(c3ncnc4[nH]cc(C)c34)CC2)c1 [3-(4-(aminomethyl)-1-(5-methyl-7H-pyrrolo[2,3-d]pyrimidin-4-yl)piperidine-4-carboxamido)phenyl diethylcarbamate] | < 0.25 µM |
| Cc1c[nH]c2ncnc(N3CCC(CN)(C(=O)Nc4cccc(OC(=O)N5CCCC5)c4)CC3)c12 [3-(4-(aminomethyl)-1-(5-methyl-7H-pyrrolo[2,3-d]pyrimidin-4-yl)piperidine-4-carboxamido)phenyl pyrrolidine-1-carboxylate] | < 0.25 µM |
| Cc1c[nH]c2ncnc(N3CCC(CN=[N+]=[N-])(C(=O)Nc4cccc(OC(=O)N(C)C)c4)CC3)c12 [3-(4-(azidomethyl)-1-(5-methyl-7H-pyrrolo[2,3-d]pyrimidin-4-yl)piperidine-4-carboxamido)phenyl dimethylcarbamate] | < 0.25 µM |
| C=CCC1(C(=O)Nc2cccc(OC(=O)N(C)C)c2)CCN(c2ncnc3[nH]cc(C)c23)CC1 [3-(4-allyl-1-(5-methyl-7H-pyrrolo[2,3-d]pyrimidin-4-yl)piperidine-4-carboxamido)phenyl dimethylcarbamate] | < 0.25 µM |
| Cc1c[nH]c2ncnc(N3CCC(C#N)(C(=O)Nc4cccc(OC(=O)N(C)C)c4)CC3)c12 [3-(4-cyano-1-(5-methyl-7H-pyrrolo[2,3-d]pyrimidin-4-yl)piperidine-4-carboxamido)phenyl dimethylcarbamate] | < 0.25 µM |
| Cc1c[nH]c2ncnc(N3CCC(C(=O)Nc4cccc(OC(=O)N(C)C)c4)(C(C)C)CC3)c12 [3-(4-isopropyl-1-(5-methyl-7H-pyrrolo[2,3-d]pyrimidin-4-yl)piperidine-4-carboxamido)phenyl dimethylcarbamate] | < 0.25 µM |
| Cc1c[nH]c2ncnc(N3CCC(C)(C(=O)Nc4cccc(OC(=O)N5CCOCC5)c4)CC3)c12 [3-(4-methyl-1-(5-methyl-7H-pyrrolo[2,3-d]pyrimidin-4-yl)piperidine-4-carboxamido)phenyl morpholine-4-carboxylate] | < 0.25 µM |
| CNc1nc2ccc(NC(=O)C3(CN)CCN(c4ncnc5[nH]cc(C)c45)CC3)cc2o1 [4-(aminomethyl)-1-(5-methyl-7H-pyrrolo[2,3-d]pyrimidin-4-yl)-N-(2-(methylamino)benzo[d]oxazol-6-yl)piperidine-4-carboxamide] | < 0.5 µM |
| Cc1c[nH]c2ncnc(N3CCC(CN)(C(=O)Nc4cccc(-c5cnco5)c4)CC3)c12 [4-(aminomethyl)-1-(5-methyl-7H-pyrrolo[2,3-d]pyrimidin-4-yl)-N-(3-(oxazol-5-yl)phenyl)piperidine-4-carboxamide] | < 0.25 µM |
| Cc1c[nH]c2ncnc(N3CCC(CN)(C(=O)Nc4ccc5nc(N(C)C)oc5c4)CC3)c12 [4-(aminomethyl)-N-(2-(dimethylamino)benzo[d]oxazol-6-yl)-1-(5-methyl-7H-pyrrolo[2,3-d]pyrimidin-4-yl)piperidine-4-carboxamide] | < 0.5 µM |
| COCCOc1cccc(NC(=O)C2(CN)CCN(c3ncnc4[nH]cc(C)c34)CC2)c1 [4-(aminomethyl)-N-(3-(2-methoxyethoxy)phenyl)-1-(5-methyl-7H-pyrrolo[2,3-d]pyrimidin-4-yl)piperidine-4-carboxamide] | < 0.25 µM |
| Cc1c[nH]c2ncnc(N3CCC(CN)(C(=O)Nc4cccc(C(=O)NC(C)C)c4)CC3)c12 [4-(aminomethyl)-N-(3-(isopropylcarbamoyl)phenyl)-1-(5-methyl-7H-pyrrolo[2,3-d]pyrimidin-4-yl)piperidine-4-carboxamide] | < 0.25 µM |
| Cc1c[nH]c2ncnc(N3CCC(CN)(C(=O)Nc4cccc(C#N)c4)CC3)c12 [4-(aminomethyl)-N-(3-cyanophenyl)-1-(5-methyl-7H-pyrrolo[2,3-d]pyrimidin-4-yl)piperidine-4-carboxamide] | < 0.25 µM |
| Cc1c[nH]c2ncnc(N3CCC(CN)(C(=O)Nc4cccc(F)c4)CC3)c12 [4-(aminomethyl)-N-(3-fluorophenyl)-1-(5-methyl-7H-pyrrolo[2,3-d]pyrimidin-4-yl)piperidine-4-carboxamide] | < 0.25 µM |
| COc1cccc(NC(=O)C2(CN)CCN(c3ncnc4[nH]cc(C)c34)CC2)c1 [4-(aminomethyl)-N-(3-methoxyphenyl)-1-(5-methyl-7H-pyrrolo[2,3-d]pyrimidin-4-yl)piperidine-4-carboxamide] | < 0.25 µM |
| Cc1c[nH]c2ncnc(N3CCC(CN)(C(=O)Nc4cccc(C(C)(C)C)c4)CC3)c12 [4-(aminomethyl)-N-(3-tert-butylphenyl)-1-(5-methyl-7H-pyrrolo[2,3-d]pyrimidin-4-yl)piperidine-4-carboxamide] | < 0.25 µM |
| C=CCC1(C(=O)Nc2cccc(Br)c2)CCN(c2ncnc3[nH]cc(C)c23)CC1 [4-allyl-N-(3-bromophenyl)-1-(5-methyl-7H-pyrrolo[2,3-d]pyrimidin-4-yl)piperidine-4-carboxamide] | < 0.25 µM |
| C=CCC1(C(=O)Nc2cccc(OC)c2)CCN(c2ncnc3[nH]cc(C)c23)CC1 [4-allyl-N-(3-methoxyphenyl)-1-(5-methyl-7H-pyrrolo[2,3-d]pyrimidin-4-yl)piperidine-4-carboxamide] | < 0.25 µM |
| C=CCC1(C(=O)Nc2cccc(C(C)(C)C)c2)CCN(c2ncnc3[nH]cc(C)c23)CC1 [4-allyl-N-(3-tert-butylphenyl)-1-(5-methyl-7H-pyrrolo[2,3-d]pyrimidin-4-yl)piperidine-4-carboxamide] | < 0.25 µM |
